# Target: T1, rat B1R (bradykinin receptor 1) (Rattus norvegicus, UniProt P97583)
# T1 construct: expressed in transfected cells; host or cells: CHO K1 cells
# T1 sequence (P97583 1-337): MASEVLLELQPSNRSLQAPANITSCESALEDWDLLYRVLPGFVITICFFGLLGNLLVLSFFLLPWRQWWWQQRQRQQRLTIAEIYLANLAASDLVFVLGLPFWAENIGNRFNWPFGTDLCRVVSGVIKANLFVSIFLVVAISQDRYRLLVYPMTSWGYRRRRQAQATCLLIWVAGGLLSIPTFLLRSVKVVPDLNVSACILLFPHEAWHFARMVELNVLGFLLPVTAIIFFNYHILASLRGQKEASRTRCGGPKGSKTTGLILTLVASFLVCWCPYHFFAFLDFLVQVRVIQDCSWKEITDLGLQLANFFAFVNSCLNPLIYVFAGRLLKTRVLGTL
# Test: FLIPR Ca2+ assay (Fluo-4) on CHO K1 cells stably transfected with the B1R gene of the rat (rB1R cells): % inhibition at 10 μM / IC50, agonist Des-Arg9-bradykinin
# Type: cell-based
# Settings: CHO-K1, rat B1R
# Procedure, shortened: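 Loading with Fluo-4 occurs for 60 min at 37 °C, or alternatively in buffer A, before FLIPR measurement. Compounds are applied, incubated 10–20 min, and then the EC80 agonist is added. Antagonism appears as reduced peak Ca2+ signal relative to maximal inhibition.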
row,inhibition at 10 µM,Structure (SMILES)
1,67%,"Cc1noc(C)c1CN1CCC2(CC1)CCN(C(=O)c1ccc3c(c1)C(NC(=O)c1cc(C(F)(F)F)ccc1Cl)CC3)CC2 (stereo not shown) [IND_CC-665, 2-Chloro-N-[6-[9-[(3,5-dimethyl-isoxazol-4-yl)-methyl]-3,9-diazaspiro[5.5]-undecane-3-carbonyl]-2,3-dihydro-1H-inden-1-yl]-5-(trifluoromethyl)benzamide]"
2,78%,"N#Cc1ccc(CN2CCC3(CC2)CCN(C(=O)c2ccc4c(c2)C(NC(=O)c2cc(C(F)(F)F)ccc2Cl)CC4)CC3)cc1 (stereo not shown) [IND_CC-666, 2-Chloro-N-[6-[9-[(4-cyano-phenyl)-methyl]-3,9-diazaspiro[5.5]undecane-3-carbonyl]-2,3-dihydro-1H-inden-1-yl]-5-(trifluoromethyl)-benzamide]"
3,85%,"N#Cc1cccc(CN2CCC3(CC2)CCN(C(=O)c2ccc4c(c2)C(NC(=O)c2cc(C(F)(F)F)ccc2Cl)CC4)CC3)c1 (stereo not shown) [IND_CC-667, 2-Chloro-N-[6-[9-[(3-cyano-phenyl)-methyl]-3,9-diazaspiro[5.5]undecane-3-carbonyl]-2,3-dihydro-1H-inden-1-yl]-5-(trifluoromethyl)-benzamide]"
4,57%,"N#Cc1ccccc1CN1CCC2(CC1)CCN(C(=O)c1ccc3c(c1)C(NC(=O)c1cc(C(F)(F)F)ccc1Cl)CC3)CC2 (stereo not shown) [IND_CC-668, 2-Chloro-N-[6-[9-[(2-cyano-phenyl)-methyl]-3,9-diazaspiro[5.5]undecane-3-carbonyl]-2,3-dihydro-1H-inden-1-yl]-5-(trifluoromethyl)-benzamide]"
5,60%,"O=C(NC1CCc2ccc(C(=O)N3CCC4(CCN(Cc5ccc(F)cc5Cl)CC4)CC3)cc21)c1cc(C(F)(F)F)ccc1Cl (stereo not shown) [IND_CC-669, 2-Chloro-N-[6-[9-[(2-chloro-4-fluoro-phenyl)-methyl]-3,9-diazaspiro[5.5]-undecane-3-carbonyl]-2,3-dihydro-1H-inden-1-yl]-5-(trifluoromethyl)benzamide]"
6,67%,"O=C(NC1CCc2ccc(C(=O)N3CCC4(CCN(Cc5c(F)cccc5Cl)CC4)CC3)cc21)c1cc(C(F)(F)F)ccc1Cl (stereo not shown) [IND_CC-670, 2-Chloro-N-[6-[9-[(2-chloro-6-fluoro-phenyl)-methyl]-3,9-diazaspiro[5.5]-undecane-3-carbonyl]-2,3-dihydro-1H-inden-1-yl]-5-(trifluoromethyl)benzamide]"
7,80%,"O=C(NC1CCc2ccc(C(=O)N3CCC4(CCN(Cc5ccc6ncccc6c5)CC4)C3)cc21)c1cc(Cl)ccc1F (stereo not shown) [IND_CC-671, 5-Chloro-2-fluoro-N-[6-[8-(quinolin-6-yl-methyl)-2,8-diazaspiro[4.5]decane-2-carbonyl]-2,3-dihydro-1H-inden-1-yl]-benzamide]"
8,88%,"O=C(NC1CCc2ccc(C(=O)N3CCC4(CCN(Cc5ccc6nccnc6c5)CC4)C3)cc21)c1cc(Cl)ccc1F (stereo not shown) [IND_CC-672, 5-Chloro-2-fluoro-N-[6-[8-(quinoxalin-6-yl-methyl)-2,8-diazaspiro[4.5]decane-2-carbonyl]-2,3-dihydro-1H-inden-1-yl]-benzamide]"
9,67%,"Cn1nnc2cc(CN3CCC4(CC3)CCN(C(=O)c3ccc5c(c3)C(NC(=O)c3cc(Cl)ccc3F)CC5)C4)ccc21 (stereo not shown) [IND_CC-673, 5-Chloro-2-fluoro-N-[6-[8-[(1-methyl-1H-benzotriazol-5-yl)-methyl]-2,8-diazaspiro[4.5]decane-2-carbonyl]-2,3-dihydro-1H-inden-1-yl]-benzamide]"
10,87%,"O=C(NC1CCc2ccc(C(=O)N3CCC4(CCN(CCCc5ccc(F)cc5)CC4)C3)cc21)c1cc(Cl)ccc1F (stereo not shown) [IND_CC-675, 5-Chloro-2-fluoro-N-[6-[8-[3-(4-fluorophenyl)-propyl]-2,8-diazaspiro[4.5]decane-2-carbonyl]-2,3-dihydro-1H-inden-1-yl]-benzamide]"
11,74%,"CN(C)c1ncc(CN2CCC3(CC2)CCN(C(=O)c2ccc4c(c2)C(NC(=O)c2cc(Cl)ccc2F)CC4)CC3)cn1 (stereo not shown) [IND_CC-676, 5-Chloro-N-[6-[9-[(2-dimethylamino-pyrimidin-5-yl)-methyl]-3,9-diazaspiro-[5.5]undecane-3-carbonyl]-2,3-dihydro-1H-inden-1-yl]-2-fluoro-benzamide]"
12,72%,"O=C(NC1CCc2ccc(C(=O)N3CCC4(CCN(Cc5ccc6ncccc6c5)CC4)CC3)cc21)c1cc(Cl)ccc1F (stereo not shown) [IND_CC-677, 5-Chloro-2-fluoro-N-[6-[9-(quinolin-6-yl-methyl)-3,9-diazaspiro[5.5]undecane-3-carbonyl]-2,3-dihydro-1H-inden-1-yl]-benzamide]"
13,82%,"O=C(NC1CCc2ccc(C(=O)N3CCC4(CCN(Cc5ccc6nccnc6c5)CC4)CC3)cc21)c1cc(Cl)ccc1F (stereo not shown) [IND_CC-678, 5-Chloro-2-fluoro-N-[6-[9-(quinoxalin-6-yl-methyl)-3,9-diazaspiro[5.5]undecane-3-carbonyl]-2,3-dihydro-1H-inden-1-yl]-benzamide]"
14,82%,"Cn1nnc2cc(CN3CCC4(CC3)CCN(C(=O)c3ccc5c(c3)C(NC(=O)c3cc(Cl)ccc3F)CC5)CC4)ccc21 (stereo not shown) [IND_CC-679, 5-Chloro-2-fluoro-N-[6-[9-[(1-methyl-1H-benzotriazol-5-yl)-methyl]-3,9-diazaspiro[5.5]undecane-3-carbonyl]-2,3-dihydro-1H-inden-1-yl]-benzamide]"
15,54%,"CC(C)CN1CCC2(CC1)CCN(C(=O)c1ccc3c(c1)C(NC(=O)c1cc(Cl)ccc1F)CC3)CC2 (stereo not shown) [IND_CC-680, 5-Chloro-2-fluoro-N-[6-[9-(2-methyl-propyl)-3,9-diazaspiro[5.5]undecane-3-carbonyl]-2,3-dihydro-1H-inden-1-yl]-benzamide]"
16,53%,"O=C(NC1CCc2ccc(C(=O)N3CCC4(CCN(CCc5ccccc5)CC4)CC3)cc21)c1cc(Cl)ccc1F (stereo not shown) [IND_CC-681, 5-Chloro-2-fluoro-N-[6-(9-phenethyl-3,9-diazaspiro[5.5]undecane-3-carbonyl)-2,3-dihydro-1H-inden-1-yl]-benzamide]"
17,51%,"Cc1nn(C)c(C)c1CN1CCC2(CC1)CCN(C(=O)c1ccc3c(c1)C(NC(=O)c1cc(C(F)(F)F)ccc1Cl)CC3)C2 (stereo not shown) [IND_CC-682, 2-Chloro-5-(trifluoromethyl)-N-[6-[8-[(1,3,5-trimethyl-1H-pyrazol-4-yl)-methyl]-2,8-diazaspiro[4.5]decane-2-carbonyl]-2,3-dihydro-1H-inden-1-yl]-benzamide]"
18,62%,"CN(C)c1ncc(CN2CCC3(CC2)CCN(C(=O)c2ccc4c(c2)C(NC(=O)c2cc(C(F)(F)F)ccc2Cl)CC4)C3)cn1 (stereo not shown) [IND_CC-683, 2-Chloro-N-[6-[8-[(2-dimethylamino-pyrimidin-5-yl)-methyl]-2,8-diazaspiro[4.5]-decane-2-carbonyl]-2,3-dihydro-1H-inden-1-yl]-5-(trifluoromethyl)-benzamide]"
19,67%,"O=C(NC1CCc2ccc(C(=O)N3CCC4(CCN(Cc5ccc6ncccc6c5)CC4)C3)cc21)c1cc(C(F)(F)F)ccc1Cl (stereo not shown) [IND_CC-684, 2-Chloro-N-[6-[8-(quinolin-6-yl-methyl)-2,8-diazaspiro[4.5]decane-2-carbonyl]-2,3-dihydro-1H-inden-1-yl]-5-(trifluoromethyl)-benzamide]"
20,68%,"O=C(NC1CCc2ccc(C(=O)N3CCC4(CCN(Cc5ccc6nccnc6c5)CC4)C3)cc21)c1cc(C(F)(F)F)ccc1Cl (stereo not shown) [IND_CC-685, 2-Chloro-N-[6-[8-(quinoxalin-6-yl-methyl)-2,8-diazaspiro[4.5]decane-2-carbonyl]-2,3-dihydro-1H-inden-1-yl]-5-(trifluoromethyl)-benzamide]"
21,69%,"Cn1nnc2cc(CN3CCC4(CC3)CCN(C(=O)c3ccc5c(c3)C(NC(=O)c3cc(C(F)(F)F)ccc3Cl)CC5)C4)ccc21 (stereo not shown) [IND_CC-686, 2-Chloro-N-[6-[8-[(1-methyl-1H-benzotriazol-5-yl)-methyl]-2,8-diazaspiro[4.5]-decane-2-carbonyl]-2,3-dihydro-1H-inden-1-yl]-5-(trifluoromethyl)-benzamide]"
22,76%,"CC(C)CN1CCC2(CC1)CCN(C(=O)c1ccc3c(c1)C(NC(=O)c1cc(C(F)(F)F)ccc1Cl)CC3)C2 (stereo not shown) [IND_CC-687, 2-Chloro-N-[6-[8-(2-methyl-propyl)-2,8-diazaspiro[4.5]decane-2-carbonyl]-2,3-dihydro-1H-inden-1-yl]-5-(trifluoromethyl)-benzamide]"
23,88%,"CCC(CC)CN1CCC2(CC1)CCN(C(=O)c1ccc3c(c1)C(NC(=O)c1cc(C(F)(F)F)ccc1Cl)CC3)C2 (stereo not shown) [IND_CC-688, 2-Chloro-N-[6-[8-(2-ethyl-butyl)-2,8-diazaspiro[4.5]decane-2-carbonyl]-2,3-dihydro-1H-inden-1-yl]-5-(trifluoromethyl)-benzamide]"
24,55%,"O=C(NC1CCc2ccc(C(=O)N3CCC4(CCN(CC5CCCCC5)CC4)C3)cc21)c1cc(C(F)(F)F)ccc1Cl (stereo not shown) [IND_CC-689, 2-Chloro-N-[6-[8-(cyclohexyl-methyl)-2,8-diazaspiro[4.5]decane-2-carbonyl]-2,3-dihydro-1H-inden-1-yl]-5-(trifluoromethyl)-benzamide]"
25,85%,"O=C(NC1CCc2ccc(C(=O)N3CCC4(CCN(CCc5ccccc5)CC4)C3)cc21)c1cc(C(F)(F)F)ccc1Cl (stereo not shown) [IND_CC-690, 2-Chloro-N-[6-(8-phenethyl-2,8-diazaspiro[4.5]decane-2-carbonyl)-2,3-dihydro-1H-inden-1-yl]-5-(trifluoromethyl)-benzamide]"
